Assay results published in ChEMBL document CHEMBL1142370, “Synthesis and SAR of pyridazinone-substituted phenylalanine amide alpha4 integrin antagonists” (Bioorg Med Chem Lett, 2008).

Assays:
in vivo [1] = conditions: rat, po, 30 mg/kg
in vitro = conditions: human, Caco-2
in vivo [2] = conditions: rat, po, 30 mg/kg; remark: listed apart in the source

| Cmax (in vivo [1]) | Papp A→B (in vitro) | Compound | bioavailability (in vivo [2]) |
| --- | --- | --- | --- |
| 0.1 µM | 1.3 nm/s | COc1cnn(C)c(=O)c1-c1ccc(C[C@H](NC(=O)c2c(Cl)cccc2Cl)C(=O)O)cc1 | – |
| 19 µM | – | COc1cnn(C)c(=O)c1-c1ccc(C[C@H](NC(=O)c2cc(F)ccc2Cl)C(=O)OCCO)cc1 | 5% |
| – | – | COc1cnn(C)c(=O)c1-c1ccc(C[C@H](NC(=O)c2cc(F)ccc2Cl)C(=O)O)cc1 | 0% |
